Like-named read-outs stand apart in the source and are kept apart here.
What was measured:
in vitro = conditions: human
[1] = system: Huh7 cells expressing a subgenomic RNA replicon of Con1 (genotype 1b) sequence origin
[2] = system: Huh7 cells expressing a subgenomic RNA replicon of Con1 (genotype 1b) sequence origin; experiment: microbe, parasite or virus in culture; conditions: Hepatitis C virus
[3] = GETYPE1B, Huh-7, 72 h, read-out: Max Effect @CC30 (inhibition)
[4] = Huh-7, 48 h, read-out: Max Effect
[5] = Huh-7, read-out: IC50 (uM) [SG]
[6] = Huh-7, read-out: Max Effect@CC30 (inhibition)

| Structure (SMILES) | CC50 (in vitro; CC50) | CC50 (in vitro; CC50 (uM)) | CC50 (in vitro; CC50 (uM) [SG]) | Synergy Score [1] | TI (CC50/IC50) [1] | Emax [2, 3] | IC50 ([2]; Huh-7, 48 h) | Emax [2, 4] | IC50 ([2]; Huh-7, 72 h) | IC50 [2, 5] | Emax [2, 6] | Max Effect@CC30 (inhibition) [1] | IC50 ([2]; Huh-7) | IC90 ([2]; Huh-7) | IC90 ([2]; Huh-7, 72 h) | IC50 [1] |
| --- | --- | --- | --- | --- | --- | --- | --- | --- | --- | --- | --- | --- | --- | --- | --- | --- |
| CNC1CCC(c2ccc(Oc3ccccc3)cc2)c2ccccc21 (stereo not shown) [Sertraline B-ring para-Phenoxy, N-methyl-4-(4-phenoxyphenyl)-1,2,3,4-tetrahydronaphthalen-1-amine] | 7.46 µM | 6.8 µM | 7.85 ± 1.48 µM | 0.38 | 1.987 | 65% | 3.75 µM | 99% | 5.15 µM | 4.02 ± 1.6 µM | 81 ± 22.6% | – | – | – | – | – |
| CN[C@H]1CC[C@@H](c2ccc(Cl)c(Cl)c2)c2ccc(NS(=O)(=O)C3CC3)cc21 [N-((5S,8S)-5-(3,4-dichlorophenyl)-8-(methylamino)-5,6,7,8-tetrahydronaphthalen-2-yl)cyclopropanesulfonamide] | – | 7.45 µM | 7.45 µM | – | – | – | – | – | – | 5.62 µM | 58.8% | 56.82% | 5.63 µM | 10.7 µM | – | – |
| CN[C@H]1CC[C@@H](c2ccc(Cl)c(Cl)c2)c2ccc(S(=O)(=O)NC)cc21 [Sertraline Sulfonamide, (5S,8S)-5-(3,4-dichlorophenyl)-N-methyl-8-(methylamino)-5,6,7,8-tetrahydronaphthalene-2-sulfonamide] | 11.6 µM | 13.04 ± 0.1 µM | 13.04 ± 0.1 µM | 0.43 | 1.605 | 40.5 ± 5% | 7.26 µM | 94% | 6.87 ± 0.2 µM | 6.87 ± 0.2 µM | 40.5 ± 5% | – | – | – | – | – |
| CN[C@H]1CC[C@@H](c2ccc(Cl)c(Cl)c2)c2ccc(CNS(C)(=O)=O)cc21 [N-(((5S,8S)-5-(3,4-dichlorophenyl)-8-(methylamino)-5,6,7,8-tetrahydronaphthalen-2-yl)methyl)methanesulfonamide] | 10.5 µM | 11.2 ± 0.3 µM | 11.2 ± 0.3 µM | 0.55 | 1.761 | 59.7 ± 3.5% | 5.97 µM | 100% | 3.28 ± 1.5 µM | 3.28 ± 1.5 µM | 59.7 ± 3.5% | – | – | – | – | – |
| CN[C@H]1CC[C@@H](c2ccc(Cl)c(Cl)c2)c2ccc(C(=O)OC)cc21 [Sertraline A-ring Methyl Ester, (5S,8S)-methyl 5-(3,4-dichlorophenyl)-8-(methylamino)-5,6,7,8-tetrahydronaphthalene-2-carboxylate] | 8.01 µM | 13.7 µM | 13.7 µM | 0.51 | 1.248 | 78% | 6.42 µM | 99% | 9.13 µM | 9.13 µM | 78% | – | – | – | – | – |
| CN(C)[C@H]1CC[C@@H](c2ccc(Cl)c(Cl)c2)c2ccc(NS(C)(=O)=O)cc21 [Dimethyl Sertraline Reverse Sulfonamide, N-((5S,8S)-5-(3,4-dichlorophenyl)-8-(dimethylamino)-5,6,7,8-tetrahydronaphthalen-2-yl)methanesulfonamide] | > 13.4 µM | 16.5 µM | 16.5 µM | 1.22 | – | 70% | – | 44% | 3.45 µM | 3.45 µM | 70% | – | – | – | – | – |
| CN[C@H]1CC[C@@H](c2ccc(Cl)c(Cl)c2)c2ccc(CO)cc21 [Sertraline A-Ring Ethanol, ((5S,8S)-5-(3,4-dichlorophenyl)-8-(methylamino)-5,6,7,8-tetrahydronaphthalen-2-yl)methanol] | 11.1 µM | 14.2 ± 0.3 µM | 14.2 ± 0.3 µM | 1.46 | 2.472 | 92 ± 5.6% | 4.48 µM | 97% | 2.85 ± 1.21 µM | 2.85 ± 1.21 µM | 92 ± 5.6% | – | – | 11.3 ± 2.91 µM | 11.3 ± 2.91 µM | – |
| CN[C@H]1CC[C@@H](c2ccc(Cl)c(Cl)c2)c2ccc(S(=O)(=O)N(C)C)cc21 [Sertraline N,N-dimethylsulfonamide, (5S,8S)-5-(3,4-dichlorophenyl)-N,N-dimethyl-8-(methylamino)-5,6,7,8-tetrahydronaphthalene-2-sulfonamide] | 7.85 µM | 8.87 µM | 8.87 µM | 0.53 | 1.076 | 38% | 7.3 µM | 91% | 6.69 µM | 6.69 µM | 38% | – | – | – | – | – |
| CN(C)[C@H]1CC[C@@H](c2ccc(Cl)c(Cl)c2)c2ccccc21 [N,N-Dimethyl Sertraline, (1S,4S)-4-(3,4-dichlorophenyl)-N,N-dimethyl-1,2,3,4-tetrahydronaphthalen-1-amine] | > 13.4 µM | 72.2 µM | 64.7 ± 10.6 µM | 0.89 | >1.727 | 99% | 7.77 µM | 70% | 5.22 ± 2.2 µM | 6.07 ± 2.2 µM | 99% | – | – | 18.1 ± 2.77 µM | 17.1 ± 2.93 µM | – |
| CNC1CCC(c2ccc(C(F)(F)F)cc2)c2ccccc21 (stereo not shown) [Sertraline B-Ring para-Trifluoromethane, N-methyl-4-(4-(trifluoromethyl)phenyl)-1,2,3,4-tetrahydronaphthalen-1-amine] | 15.9 µM | 14.2 µM | 14.2 µM | 1.93 | 1.299 | 0% | 12.2 µM | 99% | 13.4 µM | 13.4 µM | 0% | – | – | – | – | – |
| C/C1=C2/[N-]C([C@H](CC(N)=O)[C@@]2(C)CCC(=O)NC[C@@H](C)OP(=O)([O-])O[C@H]2[C@@H](O)[C@@H](n3cnc4cc(C)c(C)cc43)O[C@@H]2CO)[C@]2(C)N=C(/C(C)=C3N=C(/C=C4N=C1[C@@H](CCC(N)=O)C\4(C)C)[C@@H](CCC(N)=O)[C@]\3(C)CC(N)=O)[C@@H](CCC(N)=O)[C@]2(C)CC(N)=O.[CH2-][C@H]1O[C@@H](n2cnc3c(N)ncnc32)[C@@H](O)[C@@H]1O.[Co+3] [Cobamamide, cobamamide, reference compound] | – | – | – | – | – | – | – | – | – | – | – | – | – | – | – | 0.41 µM |
| Nc1ccc(C(=O)O)c(O)c1 [P-Aminosalicylic acid, reference compound] | – | – | – | – | – | – | – | – | – | – | – | – | – | – | – | 13.2 µM |
| O=C1C(Cl)=C(NCCN2CCOCC2)C(=O)c2ncccc21 [NSC 663284, reference compound] | – | – | – | – | – | – | – | – | – | – | – | – | – | – | – | 0.614 µM |
| Cc1ccc(NCCCc2ccccc2)c(N)c1 [JSH-23, reference compound] | – | – | – | – | – | – | – | – | – | – | – | – | – | – | – | 2.55 µM |
| Cc1ccc(S(=O)(=O)/C=C/C#N)cc1 [Bay 11-7082, reference compound] | – | – | – | – | – | – | – | – | – | – | – | – | – | – | – | 15 µM |
| COc1cc2ncnc(Nc3cccc(Cl)c3)c2cc1OC [Tyrphostin Ag 1478, tyrphostin AG 1478, reference compound] | – | – | – | – | – | – | – | – | – | – | – | – | – | – | – | 3.41 µM |
| COc1ccc(-c2nc(C(=O)N3CCN(C)CC3)sc2-c2ccc(OC)cc2)cc1 [FR122047, reference compound] | – | – | – | – | – | – | – | – | – | – | – | – | – | – | – | 23 µM |
| O=C(O)CN(CC(=O)O)c1ccccc1OCCOc1ccccc1N(CC(=O)O)CC(=O)O [1,2-Bis-(2-aminophenoxy)ethane N,N,N,N,-tetreacetic acid, reference compound] | – | – | – | – | – | – | – | – | – | – | – | – | – | – | – | 14.5 µM |
| CC(=O)[O][Pt]([NH2])([Cl])([Cl])([NH]C1CCCCC1)[O]C(C)=O [Satraplatin, reference compound] | – | – | – | – | – | – | – | – | – | – | – | – | – | – | – | 4.8 µM |
| CC1=C(/C=C/C(C)O)C(C)(C)CCC1 (stereo not drawn) [Beta-Ionol] | – | – | – | – | – | – | – | – | – | – | – | – | – | – | – | 21 µM |
